Assays:
[1] = tested on: Septoria tritici (Qo-inhibitor sensitive, wild-type); experiment: Microtiter test, Septoria tritici Qo-inhibitor sensitive wild-type (Use Example 1); type: cell-based; conditions: Zymoseptoria tritici, turbidity at 620 nm, read-out: Sensitive Septoria tritici isolate (wild type) (S-IC50)
Description: (§1) The active substances were formulated separately as a stock solution in dimethyl sulfoxide (DMSO) at a concentration of 10 000 ppm.
(§2) Activity against the Septoria blotch pathogen caused by Septoria tritici in the microtiter test
(§3) Fungal strains used: • a) Septoria tritici (Qo-inhibitor sensitive, wild-type) • b) Septoria tritici (Qo-inhibitor-resistant, G143A mutant)
(§4) 100 ml 2% Malt extract in water at pH6.8 were inoculated with microspores from 2 week old cultures grown on 2% malt extract+2% agar in Petri dishes and incubated for 3 days on a rotary shaker at 24° C. und 150 rpm. The culture was harvested, glycerol was added (15% (v/v) and kept frozen at −20° C. in aliquots of 1 ml.
(§5) 1 ml stock suspension was thawed and suspended into 800 ml of 2% malt extract in water at pH 6.8. Compounds were diluted from stock solution in (dimethylsulfoxide) DMSO in 10 steps. The compound solutions were diluted 1/5 with sterile deionized water before use. 5 μl of the compound solutions were transferred into empty microplates. The plates were then filled with 195 μl of the microspore suspension of each strain.
(§6) The antifungal activity was determined by measuring the turbidity of a culture in 96-well microplates in the presence of test compounds. Fungal growth was measured by recording the optical density at 620 nm every 15 h for 150 h. The relative antifungal activity was calculated by comparison of the effect of the test compounds with the effect of a DMSO control and a standard fungicide.
(§7) IC50-values (concentration of test compound resulting in 50% inhibition of fungal growth) were calculated from the resulting dose-response for each compound and strain. The initial concentration of the test compounds and the 10 steps of dilution (1:4 each) allowed IC50-values from 0.001 to 100 μmol/l (μM) to be assessed.

[2] = tested on: Septoria tritici isolates containing the G143A in the cytochrome b gene; experiment: Glass house Trial 3: control of leaf blotch on wheat caused by two Septoria tritici isolates containing G143A; type: in vivo; conditions: % diseased leaf area after about 28 days
Description: The spray solutions were prepared in several steps:
The stock solution was prepared as follows: 1.26 ml of a 1:1 mixture of cyclohexanone and dimethylsulfoxide was added to 8.4 mg of active ingredient. Next, 40.74 ml of a mixture of water, acetone (10%), the emulsifier Wettol (0.1%) and the wetting agent Silwet (0.05%) was added. This stock solution was then further diluted with the described solvent-emulsifier-water mixture to the desired concentrations.
Trial 3: Control of Leaf Blotch on Wheat Caused by Caused by Two Septoria tritici Isolates Containing the G143A in the Cytochrome b Gene for their Cytochrome Bc1 Complex
Wheat plants were grown in pots. These plants were sprayed to run-off with an aqueous suspension, containing the desired concentration of active ingredient. The next day, the treated plants were inoculated with an aqueous suspension of Septoria tritici. After inoculation, the trial plants were covered with a lid and immediately transferred to a chamber with a relative humidity of about 83 to 85% and 19.5 to 20° C. After 4 days the lid was removed. Altogether, the trial plants were cultivated for about 28 days in that greenhouse chamber. The extent of fungal attack on the leaves was then visually assessed as % diseased leaf area.

Septoria tritici [3] = experiment: Field Trial 2: efficacy against Septoria tritici on winter wheat (Limburgerhof); type: in vivo, Septoria tritici on winter wheat (cv. Riband); conditions: 200 g a.i./ha; for Disease (%) 19 DAA: applied at GS 33 and 26 days later at GS 39, natural infection, 19 days after last treatment; for Disease (%) 34 DAA: applied at GS 33 and GS 39, 34 days after last treatment; for antifungal activity against Qo inhibitor-resistant Septoria tritici, in words: commercial dose level
Description: (§8) Compound I-6 was used as 50 g/l EC formulation. Pyraclostrobin was used as commercial product HEADLINE.
This trial was conducted under field conditions in Limburgerhof, Rhineland-Palatinate, Germany. Seeds of winter wheat (cv. Riband) were planted and grown under standard conditions with adequate supply of water and nutrients. At growing stage GS 33 (Apr. 8, 2011), a first compound treatment (200 g a.i per ha) was made with a water volume of 400 L/ha, which was repeated 26 days later at growing stage GS 39. No further fungicide treatments were applied. Infection with fungal pathogens (e.g. Septoria tritici) occurred naturally. The evaluation of the disease incidences for Septoria tritici 19 and 34 days after the last treatment (DAA) are shown in Table IV. In the last row, the evaluation of the percentage of Qo inhibitor-resistant Septoria tritici isolates with the G143A mutation after the treatments is given.

[4] = tested on: Septoria tritici (Qo-inhibitor-resistant, G143A mutant); experiment: Microtiter test, Septoria tritici Qo-inhibitor-resistant G143A mutant (Use Example 1); type: cell-based; conditions: for IC50: Zymoseptoria tritici, read-out: Resistant Septoria tritici isolate (G143A mutation) (R-IC50)
Description: as §1, §2, §3, §4, §5, §6, §7

Septoria tritici [5] = experiment: Field Trial 1: efficacy against Septoria tritici on winter wheat (Böhl-Iggelheim); type: in vivo, Septoria tritici on winter wheat (cv. Riband); conditions: 200 g a.i./ha; for Disease (%) 20 DAA: applied at GS 32 and 21 days later at GS 39, natural infection, 20 days after last treatment; for Disease (%) 33 DAA: applied at GS 32 and GS 39, 33 days after last treatment; for Disease (%) 46 DAA: applied at GS 32 and GS 39, 46 days after last treatment; for control of Qo inhibitor-resistant Septoria tritici isolates, in words: commercial dose level
Description: as §8
The trial was conducted under field conditions in Böhl-Iggelheim, Rhineland-palatinate, Germany. Seeds of winter wheat (cv. Riband) were planted and grown under standard conditions with adequate supply of water and nutrients. At growing stage GS 32 (Apr. 14, 2011), a first compound treatment (200 g a.i. per ha) was made with a water volume of 400 L/ha, which was repeated 21 days later at growing stage GS 39. No further fungicide treatments were applied. Infection with fungal pathogens (e.g. Septoria tritici) occurred naturally. The evaluation of the disease incidences for Septoria tritici 20, 33 and 46 days after the last treatment (DAA) are shown in table Ill. In the last row, the evaluation of the percentage of Qo inhibitor-resistant Septoria tritici isolates with the G143A mutation after the treatments is given.

[6] = Resistant Septoria tritici isolate 1 (G143A mutation), 12.5 ppm
[7] = Resistant Septoria tritici isolate 1 (G143A mutation), 25 ppm
[8] = Resistant Septoria tritici isolate 1 (G143A mutation), 50 ppm
[9] = Resistant Septoria tritici isolate 1 (G143A mutation), 100 ppm
[10] = Resistant Septoria tritici isolate 1 (G143A mutation), 200 ppm
[11] = Resistant Septoria tritici isolate 2 (G143A mutation), 12.5 ppm
[12] = Resistant Septoria tritici isolate 2 (G143A mutation), 25 ppm
[13] = Resistant Septoria tritici isolate 2 (G143A mutation), 50 ppm
[14] = Resistant Septoria tritici isolate 2 (G143A mutation), 100 ppm
[15] = Resistant Septoria tritici isolate 2 (G143A mutation), 200 ppm

SMILES	IC50 [1]	Disease level (%) [2, 6]	Disease level (%) [2, 7]	Disease level (%) [2, 8]	Disease level (%) [2, 9]	Disease level (%) [2, 10]	Disease level (%) [2, 11]	Disease level (%) [2, 12]	Disease level (%) [2, 13]	Disease level (%) [2, 14]	Disease level (%) [2, 15]	Disease (%) 19 DAA (Septoria tritici [3])	Disease (%) 34 DAA (Septoria tritici [3])	antifungal activity against Qo inhibitor-resistant Septoria tritici, in words (Septoria tritici [3])	IC50 [4]	Resistance factor RF = R-IC50/S-IC50 [4]	Disease (%) 20 DAA (Septoria tritici [5])	Disease (%) 33 DAA (Septoria tritici [5])	Disease (%) 46 DAA (Septoria tritici [5])	control of Qo inhibitor-resistant Septoria tritici isolates, in words (Septoria tritici [5])
CNC(=O)C(=N/OC)/C(C)=C\COc1ccn(-c2ccc(Cl)cc2)n1 [Compound I-6, (Z)-5-[1-(4-Chloro-phenyl)-1H-pyrazol-3-yloxy]-2-[(E)-methoxyimino]-3-methyl-pent-3-enic acid methyl amide]	340 nM	50%	10%	3%	3%	1%	20%	15%	3%	3%	0%	3%	12%	capable to reduce the infection	8300 nM	24	1%	6%	36%	capable to control
COC(=O)N(OC)c1ccccc1COc1ccn(-c2ccc(Cl)cc2)n1 [Pyraclostrobin, reference compound]	1.2 nM	100%	100%	100%	90%	30%	60%	60%	40%	25%	15%	5%	28%	only slightly above the untreated control	3400 nM	2882	8%	32%	93%	insufficient control level
CON=C(C(=O)OC)c1ccccc1CON=C(C)c1cccc(C(F)(F)F)c1 [Trifloxystrobin, reference compound]	520 nM	100%	100%	90%	90%	90%	80%	70%	70%	70%	60%				> 100000 nM					

— US10080365B2, “Use of strobilurin type compounds for combating phytopathogenic fungi resistant to Qo inhibitors” (BASF SE, priority 2011, dated 2018)
